Laboratory results taken from PubChem BioAssay AID743392 (Broad Institute, 2014).
Calls of active or inactive are those of the source.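 The calls were made as follows: active = phosphorylated Mpk1, a fungal stress kinase, cut by at least 20% below its untreated level on western blot; inactive = the rest.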

System: Mitogen-activated protein kinase MPK1 phosphorylation (Cryptococcus neoformans H99)
Assay: reduced phospho-Mpk1 levels in Cryptococcus cells – cell-based, single point, dry powder, imaging, mechanism study for C. neoformans antifungal project (AID 743392)
Details: C. neoformans H99, pMpk1 Western blot, 2 h; stronger effect = higher value; concentration not given here

Q: For `Fc1cccc(OCCn2c(=S)[nH]c3ccccc32)c1`, which inhibition is on record?
A: The inhibition was 52%.

Q: `S=c1[nH]c2ccccc2n1CCOc1ccccc1Cl` was tested. Which inhibition did it give?
A: The inhibition was 56%.

Q: Which inhibition does the source give for `CC(C)c1ccc(OCCn2c(=S)[nH]c3ccccc32)cc1` here?
A: The inhibition was 62%.

Q: `Cc1ccc(C(C)C)c(OCCn2c(=S)[nH]c3ccccc32)c1` was tested. Which inhibition did it give?
A: The inhibition was 53%.

Q: How did the inhibition turn out when `Cc1cccc(OCCn2c(=S)[nH]c3c(F)cccc32)c1` was run?
A: Its inhibition is 4% (inactive).
